Results on 21 compounds are retold here after patent US20090253669A1, “Substituted Sulfonamide Compounds” (GRUENENTHAL GmbH, priority 2008, published 2009).

In test [1] the target is T1, B1R receptor of the rat (rB1R) (Rattus norvegicus, UniProt P97583).
T1 construct: host or cells: CHO K1 cells
T1 sequence (P97583 1-337): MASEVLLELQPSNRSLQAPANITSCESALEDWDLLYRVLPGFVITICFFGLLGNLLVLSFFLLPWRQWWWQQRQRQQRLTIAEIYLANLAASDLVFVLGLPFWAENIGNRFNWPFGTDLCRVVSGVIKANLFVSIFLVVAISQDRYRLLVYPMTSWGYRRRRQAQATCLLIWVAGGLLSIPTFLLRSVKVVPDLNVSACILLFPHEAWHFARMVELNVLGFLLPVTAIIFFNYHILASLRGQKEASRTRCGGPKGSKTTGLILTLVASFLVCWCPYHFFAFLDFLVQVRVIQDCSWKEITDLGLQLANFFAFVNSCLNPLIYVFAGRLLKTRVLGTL
Put plainly: FLIPR Ca2+ assay on rB1R-transfected CHO K1 cells, antagonistic action. Format: cell-based. The following applies: agonist Des-Arg9-bradykinin 100 nM, % of maximum achievable inhibition; for inhibition at 10 µM: CHO-K1, 10 μM test substance, read-out: rB1R [10 μM] % inhibition.

Test [2] concerns the target T2, human B1R receptor (hB1R) (Homo sapiens, UniProt P46663).
T2 construct: host or cells: CHO K1 cells
T2 sequence (P46663 1-353): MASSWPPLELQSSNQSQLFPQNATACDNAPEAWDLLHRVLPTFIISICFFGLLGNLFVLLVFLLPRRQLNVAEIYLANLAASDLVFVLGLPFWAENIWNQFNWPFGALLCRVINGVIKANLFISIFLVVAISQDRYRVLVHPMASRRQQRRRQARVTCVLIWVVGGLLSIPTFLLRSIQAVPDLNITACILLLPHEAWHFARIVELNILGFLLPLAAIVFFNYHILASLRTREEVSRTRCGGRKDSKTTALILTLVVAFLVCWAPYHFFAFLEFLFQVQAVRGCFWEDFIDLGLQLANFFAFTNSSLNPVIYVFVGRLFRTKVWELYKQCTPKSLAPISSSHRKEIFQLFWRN
Nature of the test: FLIPR Ca2+ assay on hB1R-transfected CHO K1 cells, antagonistic action. The conditions noted are these: agonist Lys-Des-Arg9-bradykinin 0.5 nM, % of maximum achievable inhibition; for inhibition at 10 µM: CHO-K1, 10 μM test substance, read-out: hB1R [10 μM] % inhibition. The format is cell-based.

For `COc1cc(C)c(S(=O)(=O)N2CCCCC2COCC(=O)N2CCC(c3ccccc3)(N(C)C)CC2)c(C)c1` (stereo not drawn) [Compound 75, 1-(4-(dimethylamino)-4-phenylpiperidin-1-yl)-2-((1-(4-methoxy-2,6-dimethylphenylsulfonyl)piperidin-2-yl)methoxy)ethanone], in test [1] (10 μM test substance), the “rB1R [10 μM] % inhibition” value is on record as 99%. In addition, in test [2] (10 μM test substance), the “hB1R [10 μM] % inhibition” value worked out at 103%.
Consider `COc1cc(C)c(S(=O)(=O)N(C)CCOCC(=O)N(C)CCC2CCC(CCc3ccccc3)(N(C)C)CC2)c(C)c1` (stereo not drawn) [Compound 52, N-(2-(4-(dimethylamino)-4-phenethylcyclohexyl)ethyl)-2-(2-(4-methoxy-N,2,6-trimethylphenylsulfonamido)ethoxy)-N-methylacetamide], for which the results for the inhibition at 10 µM in test [1] and in test [2] were 100% and 104%, respectively.
With `COc1cc(C)c(S(=O)(=O)N(C)CCOCC(=O)N(C)CCC2CCC(c3cccnc3)(N(C)C)CC2)c(C)c1` (stereo not drawn) [Compound 207, N-(2-(4-(Dimethylamino)-4-(pyridin-3-yl)cyclohexyl)ethyl)-2-(2-(4-methoxy-N,2,6-trimethylphenylsulfonamido)ethoxy)-N-methylacetamide], the inhibition (as a rule, the drop in the measured response relative to a control, in per cent) at 10 µM came out at 101% in test [1] and 100% in test [2].
Taken in the same sequence, the figures for `COc1cc(C)c(S(=O)(=O)N(C)CCOCC(=O)N(C)CC2CCC(c3ccccc3)(N3CCCC3)CC2)c(C)c1` (stereo not drawn) [Compound 35, 2-(2-(4-methoxy-N,2,6-trimethylphenylsulfonamido)ethoxy)-N-methyl-N-((4-phenyl-4-(pyrrolidin-1-yl)cyclohexyl)methyl)acetamide] were 101% and 102%.
Take `COc1cc(C)c(S(=O)(=O)N2CCCCC2COCC(=O)NC2CCC(Cc3ccccc3)(N3CCCC3)CC2)c(C)c1` (stereo not drawn) [Compound 149, N-(4-benzyl-4-(pyrrolidin-1-yl)cyclohexyl)-2-((1-(4-methoxy-2,6-dimethylphenylsulfonyl)piperidin-2-yl)methoxy)acetamide]: the inhibition at 10 µM came to 105% in test [1] and 103% in test [2].
Turning to `CN(CCCC1CCC(Cc2ccccc2)(N2CCCC2)CC1)C(=O)CC(NS(=O)(=O)c1ccc2ccccc2c1)c1ccccc1` (stereo not drawn) [Compound 74, N-(3-(4-benzyl-4-(pyrrolidin-1-yl)cyclohexyl)propyl)-N-methyl-3-(naphthalene-2-sulfonamido)-3-phenylpropanamide], the inhibition at 10 µM in test [1] was 99%; in test [2], 102%.
`CN(CCC1CCC(Cc2ccccc2)(N(C)C)CC1)C(=O)CC1CCCCN1S(=O)(=O)c1cccc(C(F)(F)F)c1` (stereo not drawn) [Compound 95, N-(2-(4-benzyl-4-(dimethylamino)cyclohexyl)ethyl)-N-methyl-2-(1-(3-(trifluoromethyl)phenylsulfonyl)piperidin-2-yl)acetamide]: the inhibition at 10 µM in test [1] was found to be 93%; in test [2] it was 99%.
Regarding `CN(CCOCC(=O)NC1CCC(c2ccccc2)(N2CCCC2)CC1)S(=O)(=O)c1c(Cl)cc(Cl)cc1Cl` (stereo not drawn) [Compound 191, N-(4-phenyl-4-(pyrrolidin-1-yl)cyclohexyl)-2-(2-(2,4,6-trichloro-N-methylphenylsulfonamido)ethoxy)acetamide], the inhibition at 10 µM in test [1] stood at 55%; in test [2], 90%.
As for `CN1CCN(C2(CCc3ccccc3)CCN(C(=O)COCC3CCc4ccccc4N3S(=O)(=O)c3ccc(Cl)c(Cl)c3)CC2)CC1` (stereo not drawn) [Compound 116, 2-((1-(3,4-dichlorophenylsulfonyl)-1,2,3,4-tetrahydroquinolin-2-yl)methoxy)-1-(4-(4-methylpiperazin-1-yl)-4-phenethylpiperidin-1-yl)ethanone], the inhibition at 10 µM in test [1] is 71%; in test [2] it was 57%.
`COc1cc(C)c(S(=O)(=O)N(C)CCOCC(=O)NC2CCC(c3ccccc3)(N3CCCC3)CC2)c(C)c1` (stereo not drawn) [Compound 150, 2-(2-(4-methoxy-N,2,6-trimethylphenylsulfonamido)ethoxy)-N-(4-phenyl-4-(pyrrolidin-1-yl)cyclohexyl)acetamide]: the inhibition at 10 µM in test [1] was 104%; in test [2], 102%.
For the compound `CN(C)C1(c2ccccc2)CCC(NC(=O)COCCN(C)S(=O)(=O)c2c(Cl)cc(Cl)cc2Cl)CC1` (stereo not drawn) [Compound 199, N-(4-(dimethylamino)-4-phenylcyclohexyl)-2-(2-(2,4,6-trichloro-N-methylphenylsulfonamido)ethoxy)acetamide], the inhibition at 10 µM in test [1] was 36%; in test [2], 76%.
Taken in the same sequence, the figures for `CN1CCN(C2(CCc3ccccc3)CCC(CN(C)C(=O)COCC3CCCCN3S(=O)(=O)c3c(Cl)cc(Cl)cc3Cl)CC2)CC1` (stereo not drawn) [Compound 161, N-methyl-N-((4-(4-methylpiperazin-1-yl)-4-phenethylcyclohexyl)methyl)-2-((1-(2,4,6-trichlorophenylsulfonyl)piperidin-2-yl)methoxy)acetamide] were 98% and 101%.
Take `COc1cc(C)c(S(=O)(=O)N2CCCC(OCC(=O)N(C)CC3CCC(Cc4ccccc4)(N4CCN(C)CC4)CC3)C2)c(C)c1` (stereo not drawn) [Compound 184, N-((4-benzyl-4-(4-methylpiperazin-1-yl)cyclohexyl)methyl)-2-(1-(4-methoxy-2,6-dimethylphenylsulfonyl)piperidin-3-yloxy)-N-methylacetamide]: the inhibition at 10 µM is 65% in test [1] and 93% in test [2].
Take `CN(CCCC1CCC(c2ccccc2)(N2CCCC2)CC1)C(=O)CC1CCCCN1S(=O)(=O)c1cccc(C(F)(F)F)c1` (stereo not drawn) [Compound 37, N-methyl-N-(3-(4-phenyl-4-(pyrrolidin-1-yl)cyclohexyl)propyl)-2-(1-(3-(trifluoromethyl)phenylsulfonyl)piperidin-2-yl)acetamide]: the inhibition at 10 µM in test [1] stood at 101%; in test [2], 103%.
As to `COc1cc(C)c(S(=O)(=O)N2CCCCC2COCC(=O)N2CCC(c3ccc(F)cc3)(N3CCN(C)CC3)CC2)c(C)c1` (stereo not drawn) [Compound 70, 1-(4-(4-fluorophenyl)-4-(4-methylpiperazin-1-yl)piperidin-1-yl)-2-((1-(4-methoxy-2,6-dimethylphenylsulfonyl)piperidin-2-yl)methoxy)ethanone], the inhibition at 10 µM in test [1] turned out to be 99%; in test [2] it was 104%.
Turning to `COc1cc(C)c(S(=O)(=O)N2CCCCC2COCC(=O)N(C)CCC2CCC(Cc3ccccc3)(N(C)C)CC2)c(C)c1` (stereo not drawn) [Compound 84, N-(2-(4-benzyl-4-(dimethylamino)cyclohexyl)ethyl)-2-((1-(4-methoxy-2,6-dimethylphenylsulfonyl)piperidin-2-yl)methoxy)-N-methylacetamide], the inhibition at 10 µM stood at 99% in test [1] and 104% in test [2].
Consider `COc1cc(C)c(S(=O)(=O)N(C)CCOCC(=O)N(C)CCC2CCC(c3ccccc3)(N3CCCC3)CC2)c(C)c1` (stereo not drawn) [Compound 34, 2-(2-(4-methoxy-N,2,6-trimethylphenylsulfonamido)ethoxy)-N-methyl-N-(2-(4-phenyl-4-(pyrrolidin-1-yl)cyclohexyl)ethyl)acetamide], for which the figures for the inhibition at 10 µM in test [1] and in test [2] were 101% and 104%, respectively.
`Cc1cc(S(=O)(=O)N2CCCCC2CCC(=O)N(C)CCC2CCC(CCc3ccccc3)(N(C)C)CC2)c(C)cc1Cl` (stereo not drawn) [Compound 132, 3-(1-(4-chloro-2,5-dimethylphenylsulfonyl)piperidin-2-yl)-N-(2-(4-(dimethylamino)-4-phenethylcyclohexyl)ethyl)-N-methylpropanamide]: the inhibition at 10 µM came to 43% in test [1] and 103% in test [2].
Consider `Cc1cc(S(=O)(=O)N2CCCCC2CCC(=O)N(C)CCCC2CCC(Cc3ccccc3)(N3CCCC3)CC2)c(C)cc1Cl` (stereo not drawn) [Compound 124, N-(3-(4-benzyl-4-(pyrrolidin-1-yl)cyclohexyl)propyl)-3-(1-(4-chloro-2,5-dimethylphenylsulfonyl)piperidin-2-yl)-N-methylpropanamide], for which the inhibition at 10 µM in test [1] was determined as 58%; in test [2] it was 98%.
Take `COc1cc(C)c(S(=O)(=O)N2CCCCC2COCC(=O)N(C)CCC2CCC(c3ccccc3)(N(C)C)CC2)c(C)c1` (stereo not drawn) [Compound 81, N-(2-(4-(dimethylamino)-4-phenylcyclohexyl)ethyl)-2-((1-(4-methoxy-2,6-dimethylphenylsulfonyl)piperidin-2-yl)methoxy)-N-methylacetamide]: the inhibition at 10 µM stood at 99% in test [1] and 104% in test [2].
On to `COc1cc(C)c(S(=O)(=O)N(C)CCOCC(=O)N(C)CCC2CCC(c3ccccc3)(N(C)C)CC2)c(C)c1` (stereo not drawn) [Compound 72, N-(2-(4-(dimethylamino)-4-phenylcyclohexyl)ethyl)-2-(2-(4-methoxy-N,2,6-trimethylphenylsulfonamido)ethoxy)-N-methylacetamide], for which the values for the inhibition at 10 µM in test [1] and in test [2] were 99% and 103%, respectively.
